Assay results from patent publication US12600740B2, “Fluorinated N-acetyl glucosamine analogs and xylose derivatives” (UTI Limited Partnership, priority 2018, dated 2026).

How the values were obtained:
splenocytes = test: Propidium iodide DNA cell cycle flow cytometry of splenocytes; format: cell-based, mouse; conditions: activated splenocytes
From the text: Cell-cycle flow cytometry with propidium iodide was used to corroborate the above results, and ensure the reduction in proliferation was not due to cell death. […] To further investigate whether the reduction of proliferation was due to cell death, Annexin V and propidium iodide staining were used to differentiate necrotic cells (propidium iodide+), apoptotic cells (annexin V+), dead cells (propidium iodide+ and annexin V+), and live cells (propidium iodide-annexin V−).
Cell cycle staining with propidium iodide (PI) and analysis by flow cytometry gives percentage of cells in apoptosis, G1, G2, and synthesis, and apoptosis. Following a membrane permeabilization, PI chelates to DNA and level of staining specifies the stage of the cell cycle (e.g., G2 phase will have twice the DNA and thus twice the PI signal as G1 phase, apoptotic cells contain less DNA than healthy cells and are identified by low PI staining). 1×10^6 splenocytes were used per sample, with four replicates per condition. Cells were collected into a tube with PBS and centrifuged (200 r.p.m. for 5 minutes). […] Suspension was transferred to a FACs tube and analyzed. Annexin V/Propidium iodide staining was detected using the Annexin V FITC apoptosis detection kit (BD Biosciences, #556547), which was performed according to manufacturer's instructions.

[1] = test system: CSPG production by astrocytes; conditions: previously described (Keough et al. 2016); cited from earlier work
[2] = test system: mice demyelinated with lysolecithin; conditions: previously described (Keough et al. 2016); cited from earlier work

Row | Structure (SMILES) | percentage of cells in cell cycle phases (splenocytes) | production of CSPGs by astrocytes [1] | remyelination [2]
1 | CC(=O)NC1C(OC(C)=O)OC(COC(C)=O)C(F)(F)[C@@H]1OC(C)=O (mixture of isomers) [Compound 16, 2-Acetamido-1,3,6-tri-O-acetyl-2,4-dideoxy-4,4-difluoro-α/β-D-xylo-hexopyranose] | reduced the percentage of cells in the S (DNA synthesis)-phase of the cell cycle |  | 
2 | CC(=O)NC1C(OC(C)=O)OC(COC(C)=O)[C@@H](F)C1OC(C)=O (stereo partly drawn) [Compound 3, reference compound] |  | reduced production of CSPGs by astrocytes | promoted remyelination following lysolecithin demyelination of the mouse spinal cord
